The values below come from paper PMC4412257, “2′,6′-Dimethylphenylalanine: A Useful Aromatic Amino Acid Surrogate for Tyr or Phe Residue in Opioid Peptides” (International Journal of Medicinal Chemistry, 2012).

As usually defined, the IC50 is the concentration needed to halve the response being measured. Usually Ki stands for a dissociation constant, usually derived from enzyme kinetics or from competition with a known ligand.

In data set [1] the target is μ-opioid receptor. The settings on record: cited from earlier work; for IC50: rat brain homogenate, read-out: IC50 ± SEM, opioid receptor, [3H]DAMGO (μ); for Ki: versus [3H]DAMGO, read-out: Receptor binding affinity, Ki ± S.E., μ.
The target in data set [2] is δ-opioid receptor. The following applies: cited from earlier work; for IC50: rat brain homogenate, read-out: IC50 ± SEM, opioid receptor, [3H]DT (δ); for Ki: versus [3H]DT, read-out: Receptor binding affinity, Ki ± S.E., δ.
A further data set has as its target human ORL1 receptor. Also noted: method as in PMID 16321540. The settings on record: read-out: IC50 ± SEM, ORL1 receptor, [3H]NOC; cell membrane expressing human ORL1 receptor in Hek-293 cells; cited from earlier work.
The target in the next data set is κ-opioid receptor. Also noted: method as in PMID 16321540. The settings on record: guinea pig brain homogenate; read-out: IC50 ± SEM, opioid receptor, [3H]U-69593 (κ); cited from earlier work.
A further data set has as its system guinea pig ileum (GPI). Also on record: method as in PMID 16321540. The settings on record: cited from earlier work; for IC50: DYN analogs, read-out: GPI assay IC50 ± SEM; for Ke value of receptor selective antagonist CTAP (μ) / Ke value of receptor selective antagonist N,N(Me)2Dmt-Tic-OH (δ) / Ke value of receptor selective antagonist nor-BNI (κ): GPI assay, antagonist against the peptide.

On the set-up of data set [3]: method as in PMID 16321540. The following applies: determined by HPLC; cited from earlier work.
A further data set concerns Aminopeptidase M. Also noted: method as in PMID 16321540. The settings on record: determined by HPLC; cited from earlier work.
In data set [4] the test system is μ-opioid receptor. The data set is described as follows: μ-opioid receptor binding, brain homogenate, versus [3H]DAMGO. Also on record: species or system rat. The following applies: ratio of Ki values. The protocol:
(§1) The receptor-binding affinities of synthetic analogs were determined using rat brain, as previously reported. […] The GPI tissue contains predominantly μ-receptors, while MVD tissue contains δ-receptors. […] In contrast, 11 was devoid of activity in both assays, as expected from the binding data. […] This analog turned out to be a potent μ-antagonist and a weak δ-antagonist. […] The results of 13 are in line with observations that Dmt-D-Phe-NH2 and its C-terminally extended analog are μ-receptor antagonists.
Two methyl groups on Dmp^4 may interfere with the receptor interaction due to a reduction in conformational flexibility and/or enhanced lipophilicity. To further examine the usefulness of Dmp-containing DYN peptides as κ-opioid receptor ligands, the in vitro bioactivity of DYN peptides was determined using the GPI assay (Table 5).

The subject of data set [5] is GPI (μ): guinea pig ileum, predominantly μ-receptors. The data set is described as follows: isolated guinea pig ileum (GPI) assay. The data set is classed as cell-based. The settings on record: ratio of IC50 values. The protocol: as §1
For data set [6] the test system is unchanged. The following applies: cited from earlier work; for Ke of CTAP against the peptide, GPI: antagonist CTAP (μ), GPI assay.
The target of data set [7] is MVD (δ): mouse vas deferens, δ-receptors. The following applies: cited from earlier work; for Ke of CTAP against the peptide, MVD: antagonist CTAP (μ); for Ke of CTAP against the peptide, MVD / Ke of N,N(Me)2Dmt-Tic-OH against the peptide, MVD: MVD assay; for Ke of N,N(Me)2Dmt-Tic-OH against the peptide, MVD: antagonist N,N(Me)2Dmt-Tic-OH (δ).
Another data set relates to mice. Also noted: method as in PMID 12657261. The following applies: formalin test in mice, subcutaneous injection, cited from earlier work.
Data set [8] relates to δ-opioid receptor. The data set is described as follows: δ-opioid receptor binding, brain homogenate, versus [3H]DT. Also on record: species or system rat. The following applies: ratio of Ki values.
Description: The receptor-binding affinities of synthetic analogs were determined using rat brain, as previously reported [45].
Data set [9] has as its system MVD (δ): mouse vas deferens, δ-receptors. The data set is described as follows: isolated mouse vas deferens (MVD) assay. The data set is classed as cell-based. The following applies: ratio of IC50 values. The protocol: as §1

Read-outs that look alike come from different tables or passages of the source. No end group written: not given here.

For the molecule [Dmp^4]DYN(1-13)-NH2 [compound 26], the IC50 on μ-opioid receptor [1] is 22.4 ± 10.2 nM; on δ-opioid receptor [2], 931 ± 723 nM; on human ORL1 receptor, 188 ± 18.2 nM; on κ-opioid receptor it was 0.044 ± 0.035 nM; in the data set with guinea pig ileum (GPI) it was 32.2 ± 9.16 nM. Moreover, the “Ke value of receptor selective antagonist CTAP (μ)” value with guinea pig ileum (GPI) is 108 nM. Also, the “Ke value of receptor selective antagonist N,N(Me)2Dmt-Tic-OH (δ)” value with guinea pig ileum (GPI) is listed as 198 nM. Moreover, the “Ke value of receptor selective antagonist nor-BNI (κ)” value in the data set with guinea pig ileum (GPI) is 0.63 nM. Also, the “Half-life time, Rat brain homogenate” value in data set [3] is on record as 315 min.

As to [Dmp^1,4]DYN(1-13)-NH2 [compound 28], the IC50 is 251 ± 56.3 nM at μ-opioid receptor [1]; 415 ± 185 nM at δ-opioid receptor [2]; 51.5 ± 1.62 nM on human ORL1 receptor; 5.45 ± 1.65 nM on κ-opioid receptor; 1340 ± 303 nM in the data set on guinea pig ileum (GPI). In addition, the “Ke value of receptor selective antagonist CTAP (μ)” value with guinea pig ileum (GPI) is 595 nM. Further, the “Ke value of receptor selective antagonist nor-BNI (κ)” value with guinea pig ileum (GPI) is 809 nM. Also, the “Half-life time, Rat brain homogenate” value in data set [3] is 770 min.

With [Dmp^1]NOC(1-13)-NH2 [compound 30], the IC50 is 25 ± 6.5 nM at μ-opioid receptor [1], 292 ± 61 nM on δ-opioid receptor [2], 0.814 ± 0.09 nM at human ORL1 receptor and 38.8 ± 16.7 nM at κ-opioid receptor. Besides, the “Half-life time, Aminopeptidase M” value with Aminopeptidase M is 28 min. Also, the “Half-life time, Rat brain homogenate” value in [3] is 60.3 min.

Regarding [Dmp^4]NOC(1-13)-NH2 [compound 29], the IC50 at μ-opioid receptor [1] was 629 ± 433 nM; at δ-opioid receptor [2], over 10000 nM; at human ORL1 receptor, 51.6 ± 12.9 nM; on κ-opioid receptor, 299 ± 63 nM. The “Half-life time, Rat brain homogenate” value in [3] was 33.6 min.

Take “DYN(1-13)-NH2 (YGGFLRRIRPKLK-NH2; UniProt P01213 207-219, looked up, fragment) [parent peptide, dynorphin A (1-13) amide, reference compound]”: the values for the IC50 on human ORL1 receptor and with guinea pig ileum (GPI) were 18.8 ± 3.01 nM and 3.14 ± 1.13 nM, respectively. For the same molecule, in the data set on Aminopeptidase M, the “Half-life time, Aminopeptidase M” value is recorded as 15.5 min. The “Half-life time, Rat brain homogenate” value in data set [3] is recorded as 435 min.

[Dmp^1]YRFB [compound 24]: the δ/μ in the data set with μ-opioid receptor [4] (Table 6) is given as 41284. Further, the MVD/GPI in data set [5] (Table 6) was determined as 19. Moreover, the Ki at μ-opioid receptor [1] (Table 6) is 0.0623 ± 0.014 nM. For the same molecule, the Ki at δ-opioid receptor [2] (Table 6) is 2570 ± 947 nM. In addition, in [6] (Table 6), the IC50 is 9.88 ± 1.04 nM. Besides, the “Ke of CTAP against the peptide, GPI” value in data set [6] is on record as 25.1 nM. For the same molecule, the half-maximal inhibitory concentration (IC50) in data set [7] (Table 6) is 188 ± 52 nM. In [7], the “Ke of CTAP against the peptide, MVD” value is on record as 13.4 nM and the “Ke of N,N(Me)2Dmt-Tic-OH against the peptide, MVD” value is given as over 1000 nM. Further, in the data set on mice, the “ED50, First phase” value is recorded as 1946 nmol/kg and the “ED50, Second phase” value is listed as 1529 nmol/kg.

In the case of Met-enkephalin [reference compound], the “Half-life time, Aminopeptidase M” value in the data set with Aminopeptidase M is under 5 min. Moreover, the “Half-life time, Rat brain homogenate” value in data set [3] was 8.5 min.

`CN1CC[C@]23c4c5ccc(O)c4O[C@H]2[C@@H](O)C=C[C@H]3[C@H]1C5` [Morphine, reference compound]: in the data set with mice, the “ED50, First phase” value is reported as 3811 nmol/kg and the “ED50, Second phase” value was 7319 nmol/kg.

Consider “Phe-Gly-Gly-Phe-Thr-Gly-Ala-Arg-Lys-Ser-Ala-Arg-Lys-Leu-Ala-Asn-Gln [NOC, reference compound]”, for which the IC50 is 1540 ± 601 nM at μ-opioid receptor [1], over 10000 nM on δ-opioid receptor [2] and 643 ± 218 nM at κ-opioid receptor.

With [Dmp^1,4]NOC(1-13)-NH2 [compound 31], the IC50 on μ-opioid receptor [1] was 56.8 ± 12.3 nM; at δ-opioid receptor [2] it was 3410 ± 990 nM; on human ORL1 receptor it was 21.3 ± 3.2 nM; at κ-opioid receptor, 100 ± 29 nM. For the same molecule, in data set [3], the “Half-life time, Rat brain homogenate” value is reported as 27.1 min.

Take [Dmp^1]DYN(1-13)-NH2 [compound 27]: the IC50 at μ-opioid receptor [1] was 16.4 ± 2.35 nM; at δ-opioid receptor [2], 10.1 ± 6.02 nM; at human ORL1 receptor, 6.6 ± 0.952 nM; in the data set on guinea pig ileum (GPI), 306 ± 68 nM. In addition, the “Ke value of receptor selective antagonist CTAP (μ)” value in the data set with guinea pig ileum (GPI) was 115 nM. In addition, in the data set on guinea pig ileum (GPI), the “Ke value of receptor selective antagonist N,N(Me)2Dmt-Tic-OH (δ)” value is over 1000 nM. Further, the “Ke value of receptor selective antagonist nor-BNI (κ)” value in the data set on guinea pig ileum (GPI) is 10 nM. For the same molecule, the “Half-life time, Aminopeptidase M” value with Aminopeptidase M is listed as over 30 min. In addition, the “Half-life time, Rat brain homogenate” value in [3] is on record as 577 min.

Consider [Dmp^3]YRFB [compound 22], for which the δ/μ in the data set on μ-opioid receptor [4] (Table 1) is 15543. Besides, the MVD/GPI in [5] (Table 1) was 16.7. The Ki on μ-opioid receptor [1] (Table 1, rat brain) was 0.035 ± 0.0167 nM. At δ-opioid receptor [2] (Table 1, rat brain), the inhibitory constant (Ki) was 544 ± 143 nM. The IC50 in [6] (Table 1) is 1.67 ± 0.24 nM. The “Ke of CTAP against the peptide, GPI” value in data set [6] is listed as 22.7 nM. In data set [7] (Table 1), the IC50 was 27.9 ± 5 nM. In data set [7], the “Ke of CTAP against the peptide, MVD” value is given as 11.4 nM and the “Ke of N,N(Me)2Dmt-Tic-OH against the peptide, MVD” value is recorded as over 1000 nM. Further, in the data set on mice, the “ED50, First phase” value was 98.6 nmol/kg and the “ED50, Second phase” value is 113 nmol/kg.

For the molecule [D-Dmp^3]DT [compound 21], the μ/δ in the data set on δ-opioid receptor [8] (Table 1) is on record as 18. For the same molecule, the GPI/MVD in data set [9] (Table 1) was determined as 56. Further, the Ki on μ-opioid receptor [1] (Table 1, rat brain) was 1960 ± 177 nM; on δ-opioid receptor [2] (Table 1, rat brain), 111 ± 17 nM. Further, the IC50 in [6] (Table 1) is 8210 ± 872 nM; in [7] (Table 1), 145 ± 15 nM.

[Dmt^1]DT [compound 36]: the μ/δ with δ-opioid receptor [8] (Table 6) is 21.8. In addition, in [9] (Table 6), the GPI/MVD was determined as 1700. Besides, the Ki was 0.261 ± 0.06 nM at μ-opioid receptor [1] (Table 6) and 0.012 ± 0.002 nM on δ-opioid receptor [2] (Table 6). For the same molecule, the IC50 is 88.4 ± 22.7 nM in [6] (Table 6) and 0.052 ± 0.007 nM in data set [7] (Table 6).

Take [Dmp^1]ENK [compound 32]: the μ/δ with δ-opioid receptor [8] (Table 6) is reported as 3.19. Further, in [9] (Table 6), the GPI/MVD is listed as 10.66. For the same molecule, the Ki at μ-opioid receptor [1] (Table 6) is 5.94 ± 1.45 nM; at δ-opioid receptor [2] (Table 6), 1.86 ± 0.61 nM. Further, the IC50 was 710 ± 69 nM in data set [6] (Table 6) and 66.6 ± 12.7 nM in data set [7] (Table 6).
